From ChEMBL document CHEMBL4342413, “Structure-Activity Relationship Studies of a Novel Class of Transmission Blocking Antimalarials Targeting Male Gametes” (J Med Chem, 2020)
Active and inactive are the calls of the source. No cut-off for these calls is given here.

System: Plasmodium falciparum
Assay: Antimalarial activity against Plasmodium falciparum infected in mosquitoes assessed as inhibition of oocyst formation at 10 uM added 30 mins before mosquito feed by standard membrane feeding assay
Assay type: functional
Conditions: not given

Compound `O=S(=O)(NCC1(O)CCOc2ccccc21)c1ccc(Br)s1` (racemic) has an inhibition at 10 µM of 99%.

System: Plasmodium falciparum
Assay: Antimalarial activity against Plasmodium falciparum NF54 strain male gametes in human RBC incubated for 48 hrs by dual gamete formation assay based HTS assay
Assay type: functional, organism-based
Conditions: NF54, 48 h

Compared with `O=S(=O)(NCC1(O)CCOc2ccccc21)c1ccc(Br)s1` (racemic), `O=S(=O)(NCC1(O)CCOc2ccccc21)c1ccccc1Br` (racemic) is 2.6-fold higher in EC50: 200 nM for the first, 530 nM for the second. The first is the more potent here.

System: Plasmodium falciparum
Assay: Antimalarial activity against Plasmodium falciparum NF54 strain male gametes in human RBC assessed as induction of impairment of exflagellation of male gametes by dual gamete formation assay
Assay type: functional, organism-based
Conditions: not given

First: O=S(=O)(NCC1(O)CCOc2cc(F)ccc21)c1cccc(Br)c1 (racemic)
Second: O=S(=O)(NCC1(O)CCOc2ccccc21)c1cccc(Br)c1 (racemic)
The EC50 of the first is 1.6-fold lower: 79 nM for the first, 128 nM for the second.

Compared with `COC1(CNS(=O)(=O)c2cccc(Br)c2)CCOc2ccccc21` (stereo in doubt; (-)-74), `O=S(=O)(NCC1(O)CCOc2ccccc21)c1cccc(Br)c1` (single isomer, unassigned; (+)) is higher in EC50: 59 nM for the first, greater than 2000 nM for the second. The first is the more potent here.

Compared with `COC1(CNS(=O)(=O)c2cccc(Br)c2)CCOc2ccccc21` (single isomer, unassigned; (+)), `O=S(=O)(NCC1(O)CCOc2ccccc21)c1cccc(Br)c1` (stereo in doubt; (-)-6) is lower in EC50: greater than 2000 nM for the first, 18 nM for the second.

First: O=S(=O)(NCC1(O)CCOc2ccccc21)c1ccc(Br)s1 (racemic)
Second: O=S(=O)(NCC1(O)CCOc2cc(F)ccc21)c1cccc(Br)c1 (single isomer, unassigned; (+))
The EC50 of the first is lower: 130 to 292 nM for the first, greater than 1000 nM for the second.

Going from `COC1(CNS(=O)(=O)c2cccc(Br)c2)CCOc2ccccc21` (racemic) to `O=S(=O)(NCC1(O)CCOc2cc(F)ccc21)c1cccc(Br)c1` (single isomer, unassigned; (-)), the EC50 falls from 149 nM to 51 nM (2.9-fold).

`O=S(=O)(NCC1(O)CCOc2ccccc21)c1ccc(Br)s1` (single isomer, unassigned; (+)) was tested, and the EC50 was greater than 1000 nM.
`O=S(=O)(NCC1(O)CCOc2ccccc21)c1ccc(Br)s1` (single isomer, unassigned; (-)) was tested, and the EC50 was 46 nM.

Same assay, conditions: Plasmodium falciparum, NF54

Compared with `O=S(=O)(NCC1(O)CCOc2ccccc21)c1ccccc1` (racemic), `O=S(=O)(NCC1(O)CCOc2ccccc21)c1ccccc1Cl` (racemic) is higher in EC50: 470 nM for the first, greater than 1000 nM for the second.

First: O=S(=O)(NCC1(O)CCOc2ccc(Br)cc21)c1ccc(Br)s1 (racemic)
Second: O=S(=O)(NCC1(O)CCOc2ccc(F)cc21)c1ccc(Br)s1 (racemic)
The EC50 of the first is higher: greater than 1000 nM for the first, 196 nM for the second.

First: O=S(=O)(NCC1(F)CCOc2ccccc21)c1cccc(Br)c1 (racemic)
Second: O=S(=O)(NCC1(F)CCOc2ccccc21)c1ccc(Br)s1 (racemic)
The EC50 of the first is lower: 945 nM for the first, greater than 1000 nM for the second.

Compared with `O=S(=O)(NCC1(O)CCOc2ccc(F)cc21)c1cccc(Br)c1` (racemic), `O=S(=O)(NCC1(O)CCOc2ccc(Br)cc21)c1cccc(Br)c1` (racemic) is 9.5-fold higher in EC50: 83 nM for the first, 785 nM for the second.

`C=CCOc1ccc2c(c1)C(O)(CNS(=O)(=O)c1cccc(Br)c1)CCO2` (racemic) and `O=S(=O)(NCC1(O)CCOc2ccc(O)cc21)c1cccc(Br)c1` (racemic) cannot be ordered by EC50: greater than 25000 nM for the first, greater than 10000 nM for the second.

`COc1cccc2c1OCCC2(O)CNS(=O)(=O)c1ccc(Br)s1` (racemic) and `COc1cccc2c1OCCC2(O)CNS(=O)(=O)c1cccc(Br)c1` (racemic) cannot be ordered by EC50: greater than 25000 nM for the first, greater than 25000 nM for the second.

First: O=S(=O)(NCC1(O)CCOc2ccccc21)c1sccc1Br (racemic)
Second: O=S(=O)(NCC1(O)CCOc2ccccc21)c1ccccc1Br (racemic)
The EC50 of the first is lower: 212 nM for the first, 344 to 367 nM for the second.

`O=S(=O)(NCC1(O)CCOc2ccccc21)c1ccc(Br)cc1` (racemic) and `O=S(=O)(NCC1(O)CCOc2ccccc21)c1ccc(Cl)cc1` (racemic) cannot be ordered by EC50: greater than 5000 nM for the first, greater than 1000 nM for the second.

`O=S(=O)(NCC1(O)CCOc2cc(F)ccc21)c1ccc(Br)s1` (racemic) and `COC1(CNS(=O)(=O)c2ccc(Br)s2)CCOc2ccccc21` (racemic) are within 1.5-fold of each other in EC50: 364 nM for the first, 354 nM for the second.

`O=S(=O)(NCC1CCOc2ccccc21)c1cccc(Br)c1` (racemic) and `O=S(=O)(NCC1CCOc2ccccc21)c1ccc(Br)s1` (racemic) cannot be ordered by EC50: greater than 10000 nM for the first, greater than 10000 nM for the second.

Going from `O=S(=O)(NCC1(O)CCOc2ccccc21)c1cccc(Cl)c1` (racemic) to `CC(=O)c1cccc(S(=O)(=O)NCC2(O)CCOc3ccccc32)c1` (racemic), the EC50 rises from 118 nM to greater than 20000 nM. The first is the more potent here.

`COc1ccc(S(=O)(=O)NCC2(O)CCOc3ccccc32)cc1` (racemic) and `N#Cc1ccc(S(=O)(=O)NCC2(O)CCOc3ccccc32)cc1` (racemic) cannot be ordered by EC50: greater than 25000 nM for the first, greater than 25000 nM for the second.

`O=S(=O)(NCC1(O)CC(c2ccccc2)Oc2ccccc21)c1ccc(Br)s1` (racemic) and `O=S(=O)(NCC1(O)CC(c2ccccc2)Oc2ccccc21)c1cccc(Br)c1` (racemic) cannot be ordered by EC50: greater than 25000 nM for the first, greater than 25000 nM for the second.

Compound `O=S(=O)(NCC1=CCOc2ccccc21)c1ccc(Br)s1` has an EC50 greater than 25000 nM.

System: HepG2
Assay: Cytotoxicity against human HepG2 cells assessed as reduction in cell viability at 50 uM incubated for 48 hrs by Alamar Blue staining based fluorescence assay
Assay type: functional
Conditions: not given

`COc1cccc2c1C(=O)c1c(O)c3c(c(O)c1C2=O)C[C@@](O)(C(=O)CO)C[C@@H]3O[C@H]1C[C@H](N)[C@H](O)[C@H](C)O1` was tested, and the Activity was “Active”.

System: HepG2
Assay: Cytotoxicity against human HepG2 cells assessed as reduction in cell viability at 10 uM incubated for 48 hrs by Alamar Blue staining based fluorescence assay
Conditions: hepg2, 48 h

With `O=S(=O)(NCC1(O)CCOc2cc(F)ccc21)c1cccc(Br)c1` (racemic) the Activity was “Non-Toxic”.
With `O=S(=O)(NCC1(O)CCOc2ccccc21)c1ccc(Br)s1` (racemic) the Activity was “Non-Toxic”.
In the case of `O=S(=O)(NCC1(O)CCOc2ccccc21)c1cccc(Br)c1` (racemic), the Activity is reported as “Non-Toxic”.
`COC1(CNS(=O)(=O)c2cccc(Br)c2)CCOc2ccccc21` (racemic) was tested, and the Activity was “Non-Toxic”.
